Test results as given in US9006487B2, “Amine-containing lipids and uses thereof” (Massachusetts Institute of Technology, priority 2005, dated 2015).
Several values for one entry are separate records, joined by “and”; a condition that tells them apart may be missing. Identical values can stand only once.

System: cos-7 cells
Assay: DNA transfection: luciferase expression relative to Lipofectamine 2000
Type: cell-based
Conditions: for Luciferase expression as a percentage of that achieved using Lipofectamine 2000: 300 ng Luciferase DNA per well; for luciferase expression (second part of table, values relative to LIPO2000): 300 ng of DNA per well
Outline: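 cos-7 cells were transfected with 300 ng/well luciferase DNA complexed with lipid at ratios from 2.5 to 25 w/w. Bright-Glo luminescence was read after 48 hours and converted to ng luciferase by standard curve. Data are percent of the Lipofectamine 2000 control (2.5 w/w).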

[1] = lipid/DNA 2.5 w/w, luciferase assay after 48 hours
[2] = lipid/DNA 5 w/w, luciferase assay after 48 hours
[3] = lipid/DNA 10 w/w, luciferase assay after 48 hours
[4] = lipid/DNA 15 w/w, luciferase assay after 48 hours
[5] = lipid/DNA 20 w/w, luciferase assay after 48 hours
[6] = lipid/DNA 25 w/w, luciferase assay after 48 hours

SMILES	Luciferase expression as a percentage of that achieved using Lipofectamine 2000 [1]	Luciferase expression as a percentage of that achieved using Lipofectamine 2000 [2]	Luciferase expression as a percentage of that achieved using Lipofectamine 2000 [3]	Luciferase expression as a percentage of that achieved using Lipofectamine 2000 [4]	Luciferase expression as a percentage of that achieved using Lipofectamine 2000 [5]	Luciferase expression as a percentage of that achieved using Lipofectamine 2000 [6]	luciferase expression (second part of table, values relative to LIPO2000) (lipid/DNA 2.5 w/w)	luciferase expression (second part of table, values relative to LIPO2000) (lipid/DNA 5 w/w)	luciferase expression (second part of table, values relative to LIPO2000) (lipid/DNA 10 w/w)	luciferase expression (second part of table, values relative to LIPO2000) (lipid/DNA 15 w/w)	luciferase expression (second part of table, values relative to LIPO2000) (lipid/DNA 20 w/w)	luciferase expression (second part of table, values relative to LIPO2000) (lipid/DNA 25 w/w)	Luciferase expression as a percentage of that achieved using Lipofectamine 2000 (lipid/DNA 2.5 w/w, 72 hours incubation before bright-glo)	Luciferase expression as a percentage of that achieved using Lipofectamine 2000 (lipid/DNA 5 w/w, 72 hours incubation before bright-glo)	Luciferase expression as a percentage of that achieved using Lipofectamine 2000 (lipid/DNA 10 w/w, 72 hours incubation before bright-glo)	Luciferase expression as a percentage of that achieved using Lipofectamine 2000 (lipid/DNA 15 w/w, 72 hours incubation before bright-glo)	Luciferase expression as a percentage of that achieved using Lipofectamine 2000 (lipid/DNA 20 w/w, 72 hours incubation before bright-glo)	Luciferase expression as a percentage of that achieved using Lipofectamine 2000 (lipid/DNA 25 w/w, 72 hours incubation before bright-glo)
CCCCCCCCCCCCCCCOC(=O)CCN(CCC(=O)OCCCCCCCCCCCCCCC)CC(OC)OC [LG13]	0.0%	0.0%	0.0%	0.0%	0.0%	0.0%	–	–	–	–	–	–	–	–	–	–	–	–
CCCCCCCCCCCCCCCOC(=O)CCN(CCC(=O)OCCCCCCCCCCCCCCC)CC1CCCO1 (centres unmarked) [LG15]	0.7%	0.8%	0.5%	0.6%	0.7%	0.8%	–	–	–	–	–	–	–	–	–	–	–	–
CCCCCCCCCCCCCCCOC(=O)CCN(CCC(=O)OCCCCCCCCCCCCCCC)CCc1ccc(OC)c(OC)c1 [LG17]	0.4%	0.3%	0.1%	0.0%	0.3%	0.3%	–	–	–	–	–	–	–	–	–	–	–	–
CCCCCCCCCCCCCCCOC(=O)CCN(CCCO)CCC(=O)OCCCCCCCCCCCCCCC [LG20]	2.0%	2.5%	0.4%	0.2%	0.1%	0.1%	–	–	–	–	–	–	–	–	–	–	–	–
CCCCCCCCCCCCCCCOC(=O)CCN(CCC(=O)OCCCCCCCCCCCCCCC)CC(C)O (centres unmarked) [LG21]	0.1%	0.1%	0.1%	0.2%	0.2%	0.4%	–	–	–	–	–	–	–	–	–	–	–	–
CCCCCCCCCCCCCCCOC(=O)CCN(CCC(=O)OCCCCCCCCCCCCCCC)C[C@H](C)O [LG22]	0.2%	0.3%	0.4%	0.5%	0.4%	0.7%	–	–	–	–	–	–	–	–	–	–	–	–
CCCCCCCCCCCCCCCOC(=O)CCN(CCC(=O)OCCCCCCCCCCCCCCC)CC(O)CO (centres unmarked) [LG24]	2.0%	3.3%	4.8%	11.2%	16.4%	32.5%	–	–	–	–	–	–	–	–	–	–	–	–
CCCCCCCCCCCCCCCOC(=O)CCN(CCC(=O)OCCCCCCCCCCCCCCC)C(CO)CO [LG25]	15.9%	32.0%	43.2%	56.9%	42.1%	63.9%	15.9	32.0	43.2	56.9	42.1	63.9	–	–	–	–	–	–
CCCCCCCCCCCCCCCOC(=O)CCN(CCC(=O)OCCCCCCCCCCCCCCC)C(C)(CO)CO [LG26]	0.6%	13.0%	1.9%	0.5%	0.3%	0.4%	–	–	–	–	–	–	–	–	–	–	–	–
CCCCCCCCCCCCCCCOC(=O)CCN(CCCCO)CCC(=O)OCCCCCCCCCCCCCCC [LG28]	0.2%	0.5%	0.2%	0.2%	0.1%	0.2%	–	–	–	–	–	–	–	–	–	–	–	–
CCCCCCCCCCCCCCCOC(=O)CCN(CCC(=O)OCCCCCCCCCCCCCCC)CC(C)(C)CO [LG33]	0.1%	0.1%	0.1%	0.1%	0.1%	0.1%	–	–	–	–	–	–	–	–	–	–	–	–
CCCCCCCCCCCCCCCOC(=O)CCN(CCC(=O)OCCCCCCCCCCCCCCC)C(CC)(CO)CO [LG34]	–	–	1.4%	0.8%	–	–	–	–	–	–	–	–	–	–	–	–	–	–
CCCCCCCCCCCCCCCOC(=O)CCN(C)CCN(C)CCC(=O)OCCCCCCCCCCCCCCC [LG60]	0.9%	1.0%	0.8%	0.9%	0.8%	1.0%	–	–	–	–	–	–	–	–	–	–	–	–
CCCCCCCCCCCCCCCOC(=O)CCN(CC)CCN(CC)CCC(=O)OCCCCCCCCCCCCCCC [LG61]	0.4%	0.5%	0.4%	0.4%	0.4%	0.5%	–	–	–	–	–	–	–	–	–	–	–	–
CCCCCCCCCCCCCCCOC(=O)CCN(CC)CCCN(CC)CCC(=O)OCCCCCCCCCCCCCCC [LG64]	0.0% and 0.2%	0.0% and 0.1%	0.0% and 0.1%	0.0% and 0.1%	0.0% and 0.1%	0.0% and 0.2%	–	–	–	–	–	–	0.3%	0.3%	1.8%	1.8%	1.2%	1.6%
CCCCCCCCCCCCCCCOC(=O)CCN(CCCN(CC)CC)CCC(=O)OCCCCCCCCCCCCCCC [LG81]	0.7%	0.8%	1.2%	4.1%	14.8%	19.9%	–	–	–	–	–	–	–	–	–	–	–	–
CCCCCCCCCCCCCCCOC(=O)CCN(CCC(=O)OCCCCCCCCCCCCCCC)CCN1CCCCC1 [LG82]	0.2%	0.2%	0.6%	0.8%	0.5%	1.2%	–	–	–	–	–	–	–	–	–	–	–	–
CCCCCCCCCCCCCCCOC(=O)CCN(CCCN(CCO)CCO)CCC(=O)OCCCCCCCCCCCCCCC [LG87]	14.5%	7.5%	9.2%	10.4%	5.9%	4.7%	–	–	–	–	–	–	–	–	–	–	–	–
